Data reported in patent publication US6344460B1, “Propynyl uracils” (Lonza Inc., priority 2000, dated 2002).

Columns and labels:
[1] = tested on: Aspergillus niger ATCC #16404; experiment: Minimum inhibitory concentration by zone of inhibition assay; assay type: cell-based; conditions: 5 days contact, Day-Engley neutralizing media
From the text: A. niger ATCC #16404 was contacted with each sulfone for 5 days in a Day-Engley neutralizing media.

[2] = tested on: Postia placenta (a brown rot, ATCC 11538); conditions: P. placenta; for IC50 (ppm): minimum concentration for 50% zone of inhibition, 9 days contact
Description: (§1) Prod J. 45(1):86-9 (1995), was performed to determine the minimum concentration of uracil necessary to achieve a 50% zone of inhibition over 9 days of contact time.

[3] = tested on: Gloephyllium trabeum (a brown rot, ATCC 11539); conditions: G. trabeum; for IC50 (ppm): minimum concentration for 50% zone of inhibition, 9 days contact
Description: as §1

[4] = tested on: Chaetomium globosum (a soft rot, ATCC 6205); conditions: C. globosum; minimum concentration for 50% zone of inhibition, 9 days contact
Description: as §1

[5] = tested on: Trametes versicolor (a white rot; ATCC 42462); conditions: T. versicolor; for IC50 (ppm): minimum concentration for 50% zone of inhibition, 9 days contact
Description: as §1

O=c1c(F)cn(CC#CI)c(=O)n1-c1ccco1 [1N-(3-iodo-2-propynyl)-3N-(2-furanyl)-5-fluorouracil]
5 Day Minimum Inhibitory Concentration Aspergillus niger [1]: 30 to 100 mg/L

O=c1[nH]cc([N+](=O)[O-])c(=O)n1CC#CI [3N-(3-iodo-2-propynyl)-5-nitrouracil]
5 Day Minimum Inhibitory Concentration Aspergillus niger [1]: 30 to 100 mg/L

Cc1cn(CC#CI)c(=O)n(CC#CI)c1=O [1N,3N-Bis(3-iodo-2-propynyl)-5-methyluracil]
5 Day Minimum Inhibitory Concentration Aspergillus niger [1]: 10 to 30 mg/L

O=c1ccn(CC#CI)c(=O)n1C1O[C@H](CO)[C@@H](O)[C@H]1O (stereo partly drawn) [1N-(3-iodo-2-propynyl)-3N-(D-1-ribose)-uracil]
5 Day Minimum Inhibitory Concentration Aspergillus niger [1]: 100 to 300 mg/L

CCCCCCCCCC[N+](C)(C)CCCCCCCCCC.[Cl-] [didecydimethyl ammonium chloride, didecyldimethyl ammonium chloride, reference compound]
IC50 (ppm) [2]: 5.6 ppm
IC50 (ppm) [3]: 6.45 ppm
IC50 (ppm) [4]: 62.9 ppm
IC50 (ppm) [5]: 53.9 ppm

O=c1c(Cl)cn(CC#CI)c(=O)n1CC#CI
concentration at which a total kill was observed [2]: no more than 50 ppm
IC50 (ppm) [2]: <5.0 ppm
concentration at which a total kill was observed [3]: no more than 50 ppm
IC50 (ppm) [3]: 3.22 ppm
IC50 (ppm) [4]: 3.22 ppm
5 Day Minimum Inhibitory Concentration Aspergillus niger [1]: 10 to 30 mg/L
concentration at which a total kill was observed [5]: no more than 50 ppm
IC50 (ppm) [5]: 6.12 ppm

O=c1ccn(CC#CI)c(=O)n1CC#CI [1N, 3N-bis(3-iodo-2-propynyl)-uracil, 1N,3N-Bis(3-iodo-2-propynyl)-uracil]
5 Day Minimum Inhibitory Concentration Aspergillus niger [1]: 3 to 10 mg/L
